Measured values as given in patent US20240083857A1, “2-Methyl-Quinazolines” (Bayer Pharma Aktiengesellschaft, priority 2017, published 2024).
Read-outs that look alike come from different tables or passages of the source.

Assays:
[1] = molecular target: Epidermal Growth Factor Receptor (EGFR) (Homo sapiens (Human), UniProt P00533); assay: EGFR kinase assay (TR-FRET); type: biochemical; details: read-out: EGFR kinase inhibition IC50
How it was run: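 EGFR purified from A431 cells was preincubated with compound 15 min at 22° C in pH 7.0 Hepes buffer with MgCl2, MnCl2 and vanadate before reaction with a biotinylated peptide. After EDTA stop, phosphopeptide was detected by TR-FRET (anti-phosphotyrosine Tb-cryptate, streptavidin-XL665) as the 665/620 nm emission ratio.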

[2] = molecular target: human SOS1 (nucleotide exchange of K-Ras^G12C) (Homo sapiens, UniProt Q07889); assay: Biochemical assay 2: K-Ras^G12C activation assay by hSOS1 at high GTP concentration (HTRF); details: high GTP; for inhibition at 20 µM: read-out: Assay 2 (KRAS-Activation by SOS high GTP) activity expressed as % inhibition at 20 μM; for IC50: read-out: Assay 2 (KRAS-Activation by SOS high GTP) activity expressed as IC50

Chain of Epidermal Growth Factor Receptor (EGFR) (P00533 25-1210): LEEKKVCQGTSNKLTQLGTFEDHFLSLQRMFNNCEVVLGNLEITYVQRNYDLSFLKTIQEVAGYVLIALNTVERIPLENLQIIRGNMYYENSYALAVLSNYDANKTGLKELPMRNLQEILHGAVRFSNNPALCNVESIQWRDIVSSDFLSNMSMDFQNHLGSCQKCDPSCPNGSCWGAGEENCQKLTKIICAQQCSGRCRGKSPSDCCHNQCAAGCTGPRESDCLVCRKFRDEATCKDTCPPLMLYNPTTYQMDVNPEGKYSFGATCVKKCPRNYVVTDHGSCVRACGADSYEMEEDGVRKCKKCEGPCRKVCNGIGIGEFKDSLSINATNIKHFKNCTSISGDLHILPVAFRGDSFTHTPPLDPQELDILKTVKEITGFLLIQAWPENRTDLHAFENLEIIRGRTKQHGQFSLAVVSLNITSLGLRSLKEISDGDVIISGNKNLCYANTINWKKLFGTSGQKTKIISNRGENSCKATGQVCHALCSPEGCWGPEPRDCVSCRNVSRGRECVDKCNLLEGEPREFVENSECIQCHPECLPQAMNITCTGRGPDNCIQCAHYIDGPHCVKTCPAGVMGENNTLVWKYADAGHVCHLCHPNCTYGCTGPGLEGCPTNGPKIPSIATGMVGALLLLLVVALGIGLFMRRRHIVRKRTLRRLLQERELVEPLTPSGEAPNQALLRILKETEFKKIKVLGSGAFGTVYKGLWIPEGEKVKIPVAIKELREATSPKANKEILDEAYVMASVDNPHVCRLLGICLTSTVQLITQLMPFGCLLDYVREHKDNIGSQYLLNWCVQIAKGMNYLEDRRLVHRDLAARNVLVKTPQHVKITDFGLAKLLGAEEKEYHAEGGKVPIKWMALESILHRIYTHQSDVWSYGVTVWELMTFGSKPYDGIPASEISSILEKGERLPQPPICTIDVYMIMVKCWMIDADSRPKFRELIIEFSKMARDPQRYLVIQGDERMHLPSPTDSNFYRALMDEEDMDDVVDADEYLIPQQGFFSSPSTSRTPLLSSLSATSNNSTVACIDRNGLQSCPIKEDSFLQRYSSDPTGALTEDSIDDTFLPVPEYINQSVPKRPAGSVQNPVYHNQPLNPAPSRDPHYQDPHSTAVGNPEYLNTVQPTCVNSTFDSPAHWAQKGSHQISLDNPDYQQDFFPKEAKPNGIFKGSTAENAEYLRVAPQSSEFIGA

SMILES | IC50 ([1]; values given in μM) [µM] | inhibition at 20 µM [2] [%] | IC50 [2] [µM] | IC50 ([1]; unit inferred) [µM]
COc1cc2nc(C)nc(N[C@H](C)c3ccc(C4=CCN(C)CC4)cc3)c2cc1OC [Example 201, 6,7-dimethoxy-2-methyl-N-{(1R)-1-[4-(1-methyl-1,2,3,6-tetrahydropyridin-4-yl)phenyl]ethyl}quinazolin-4-amine] | > 20 | 20 |  | 
COc1cc2nc(C)nc(N[C@H](C)c3cccc(C4=CCN(C)CC4)c3)c2cc1OC [Example 202, 6,7-dimethoxy-2-methyl-N-{(1R)-1-[3-(1-methyl-1,2,3,6-tetrahydropyridin-4-yl)phenyl]ethyl}quinazolin-4-amine] | > 20 |  | 0.979 | 
C=C(C)c1ccc([C@@H](C)Nc2nc(C)nc3cc(OC)c(OC)cc23)cc1 [Example 203, 6,7-dimethoxy-2-methyl-N-{(1R)-1-[4-(prop-1-en-2-yl)phenyl]ethyl}quinazolin-4-amine] | > 20 |  | 1.38 | 
COc1cc2nc(C)nc(N[C@H](C)c3cccc(C4CC4)c3)c2cc1OC [Example 204, N-[(1R)-1-(3-cyclopropylphenyl)ethyl]-6,7-dimethoxy-2-methylquinazolin-4-amine] | > 20 |  | 0.265 | 
COc1cc2nc(C)nc(NC(C)c3cccc4sccc34)c2cc1OC (centres unmarked) [Example 205, N-[1-(1-benzothiophen-4-yl)ethyl]-6,7-dimethoxy-2-methylquinazolin-4-amine] | > 20 |  | 0.0872 | 
COc1cc2nc(C)nc(N[C@H](C)c3ccccc3)c2cc1OC [Example 206, 6,7-dimethoxy-2-methyl-N-[(1R)-1-phenylethyl]quinazolin-4-amine] | > 20 |  | 1 | 
COc1cc2nc(C)nc(NC(C)c3cccs3)c2cc1OC (centres unmarked) [Example 207, 6,7-dimethoxy-2-methyl-N-[1-(thiophen-2-yl)ethyl]quinazolin-4-amine] | > 20 |  | 2.27 | 
COc1cc2nc(C)nc(NC(C)c3ccc(-c4ccccc4CN4CCC(O)C4)s3)c2cc1OC (centres unmarked) [Example 210, 1-[2-(5-{1-[(6,7-dimethoxy-2-methylquinazolin-4-yl)amino]ethyl}thiophen-2-yl)benzyl]pyrrolidin-3-ol] | > 20 |  | 0.109 | 
COc1cc2nc(C)nc(NC(C)c3ccc(-c4ccccc4CN4CC[C@H](F)C4)s3)c2cc1OC (stereo partly drawn) [Example 211, N-{1-[5-(2-{[(3S)-3-fluoropyrrolidin-1-yl]methyl}phenyl)thiophen-2-yl]ethyl}-6,7-dimethoxy-2-methylquinazolin-4-amine] | > 20 |  | 0.292 | 
COc1cc2nc(C)nc(NC(C)c3ccc(-c4ccccc4)o3)c2cc1OC (centres unmarked) [Example 213, 6,7-dimethoxy-2-methyl-N-[1-(5-phenylfuran-2-yl)ethyl]quinazolin-4-amine] | > 20 |  | 6.31 | 
COc1cc2nc(C)nc(NC(C)c3cc(Br)cc4c3OCC4)c2cc1OC (centres unmarked) [Example 214, N-[1-(5-bromo-2,3-dihydro-1-benzofuran-7-yl)ethyl]-6,7-dimethoxy-2-methylquinazolin-4-amine] | > 20 |  | 3.96 | 
COc1cc2nc(C)nc(NC(C)c3cccc(Oc4ccccc4)c3)c2cc1OC (centres unmarked) [Example 215, 6,7-dimethoxy-2-methyl-N-[1-(3-phenoxyphenyl)ethyl]quinazolin-4-amine] |  |  | 1.16 | 2.57
COc1cc2nc(C)nc(NC(C)c3cccc(-c4nn[nH]n4)c3)c2cc1OC (centres unmarked) [Example 216, 6,7-dimethoxy-2-methyl-N-{1-[3-(2H-tetrazol-5-yl)phenyl]ethyl}quinazolin-4-amine] | > 20 |  | 17 | 
COc1cc2nc(C)nc(NC(C)c3cccc4cccnc34)c2cc1OC (centres unmarked) [Example 217, 6,7-dimethoxy-2-methyl-N-[1-(quinolin-8-yl)ethyl]quinazolin-4-amine] | > 20 | 50 |  | 
COc1cc2nc(C)nc(NC(C)c3ccc(-c4cnn(CCO)c4)s3)c2cc1OC (centres unmarked) [Example 218, 2-[4-(5-{1-[(6,7-dimethoxy-2-methylquinazolin-4-yl)amino]ethyl}thiophen-2-yl)-1H-pyrazol-1-yl]ethanol] | > 20 |  | 1.37 | 
COc1cc2nc(C)nc(NC(C)c3ccc(-c4cnc5n4CCC5)s3)c2cc1OC (centres unmarked) [Example 219, N-{1-[5-(6,7-dihydro-5H-pyrrolo[1,2-a]imidazol-3-yl)thiophen-2-yl]ethyl}-6,7-dimethoxy-2-methylquinazolin-4-amine] | > 20 |  | 0.57 | 
COc1cc2nc(C)nc(NC(C)c3ccc(-c4cnn(CCN5CCCC5)c4)s3)c2cc1OC (centres unmarked) [Example 220, 6,7-dimethoxy-2-methyl-N-[1-(5-{1-[2-(pyrrolidin-1-yl)ethyl]-1H-pyrazol-4-yl}thiophen-2-yl)ethyl]quinazolin-4-amine] | > 20 |  | 0.381 | 

SMILES | IC50 ([1]; values given in μM) [µM] | inhibition at 20 µM [2] [%] | IC50 [2] [µM] | IC50 ([1]; unit inferred) [µM]
COc1cc2nc(C)nc(NC(C)c3ccc(-c4cnn(C5CCCC5)c4)s3)c2cc1OC (centres unmarked) [Example 221, N-{1-[5-(1-cyclopentyl-1H-pyrazol-4-yl)thiophen-2-yl]ethyl}-6,7-dimethoxy-2-methylquinazolin-4-amine] | > 20 |  | 4.65 | 
COc1cc2nc(C)nc(NC(C)c3ccc(-c4cc[nH]n4)s3)c2cc1OC (centres unmarked) [Example 222, 6,7-dimethoxy-2-methyl-N-{1-[5-(1H-pyrazol-3-yl)thiophen-2-yl]ethyl}quinazolin-4-amine] | > 20 |  | 4.44 | 
COc1cc2nc(C)nc(NC(C)c3ccc(-c4ccccc4CN4CCC(F)(F)C4)s3)c2cc1OC (centres unmarked) [Example 223, N-[1-(5-{2-[(3,3-difluoropyrrolidin-1-yl)methyl]phenyl}thiophen-2-yl)ethyl]-6,7-dimethoxy-2-methylquinazolin-4-amine] | > 20 |  | 5.6 | 
COc1cc2nc(C)nc(NC(C)c3ccc4nsnc4c3)c2cc1OC (centres unmarked) [Example 229, N-[1-(2,1,3-benzothiadiazol-5-yl)ethyl]-6,7-dimethoxy-2-methylquinazolin-4-amine] | > 20 |  | 7.82 | 
CCOc1ccccc1-c1ccc(C(C)Nc2nc(C)nc3cc(OC)c(OC)cc23)s1 (centres unmarked) [Example 232, N-{1-[5-(2-ethoxyphenyl)thiophen-2-yl]ethyl}-6,7-dimethoxy-2-methylquinazolin-4-amine] | > 20 |  | 9.29 | 
COc1cc2nc(C)nc(NC(C)c3ccc(-c4ccc(F)c5ccccc45)s3)c2cc1OC (centres unmarked) [Example 233, N-{1-[5-(4-fluoronaphthalen-1-yl)thiophen-2-yl]ethyl}-6,7-dimethoxy-2-methylquinazolin-4-amine] | > 20 |  | 2 | 
COc1cc2nc(C)nc(NC(C)c3ccc(-c4ccc(F)cc4CN)s3)c2cc1OC (centres unmarked) [Example 234, N-[1-{5-[2-(aminomethyl)-4-fluorophenyl]thiophen-2-yl}ethyl]-6,7-dimethoxy-2-methylquinazolin-4-amine] | > 20 |  | 0.0654 | 
COc1cc2nc(C)nc(NC(C)c3ccc(C4=CCOCC4)s3)c2cc1OC (centres unmarked) [Example 235, N-{1-[5-(3,6-dihydro-2H-pyran-4-yl)thiophen-2-yl]ethyl}-6,7-dimethoxy-2-methylquinazolin-4-amine] | > 20 |  | 4.72 | 
COc1cc2nc(C)nc(NC(C)c3ccc(-c4ccccc4CN4CCC(N(C)C)C4)s3)c2cc1OC (centres unmarked) [Example 238, N-{1-[5-(2-{[3-(dimethylamino)pyrrolidin-1-yl]methyl}phenyl)thiophen-2-yl]ethyl}-6,7-dimethoxy-2-methylquinazolin-4-amine] | > 20 |  | 0.217 | 
COc1cc2nc(C)nc(NC(C)c3csc(Br)c3)c2cc1OC (centres unmarked) [Example 239, N-[1-(5-bromothiophen-3-yl)ethyl]-6,7-dimethoxy-2-methylquinazolin-4-amine] | > 20 |  | 3.83 | 
COc1cc2nc(C)nc(NC(C)c3ccc(-c4ccccc4C(N)=O)s3)c2cc1OC (centres unmarked) [Example 240, 2-(5-{1-[(6,7-dimethoxy-2-methylquinazolin-4-yl)amino]ethyl}thiophen-2-yl)benzamide] | > 20 |  | 3.19 | 
COc1cc2nc(C)nc(NC(C)c3ccc(-c4cccc(C(N)=O)c4)s3)c2cc1OC (centres unmarked) [Example 241, 3-(5-{1-[(6,7-dimethoxy-2-methylquinazolin-4-yl)amino]ethyl}thiophen-2-yl)benzamide] | > 20 |  | 1.44 | 
COc1cc2nc(C)nc(NC(C)c3ccc(-c4ccc(C(N)=O)cc4)s3)c2cc1OC (centres unmarked) [Example 242, 4-(5-{1-[(6,7-dimethoxy-2-methylquinazolin-4-yl)amino]ethyl}thiophen-2-yl)benzamide] | > 20 |  | 1.5 | 
COc1cc2nc(C)nc(NC(C)c3ccc(-c4ccccc4N)s3)c2cc1OC (centres unmarked) [Example 243, N-{1-[5-(2-aminophenyl)thiophen-2-yl]ethyl}-6,7-dimethoxy-2-methylquinazolin-4-amine] | > 20 |  | 0.325 | 
COc1cc2nc(C)nc(NC(C)c3ccc(-c4ccccc4CO)s3)c2cc1OC (centres unmarked) [Example 244, [2-(5-{1-[(6,7-dimethoxy-2-methylquinazolin-4-yl)amino]ethyl}thiophen-2-yl)phenyl]methanol] | > 20 |  | 0.401 | 
COc1cc2nc(C)nc(NC(C)c3ccc(-c4ccccc4C#N)s3)c2cc1OC (centres unmarked) [Example 245, 2-(5-{1-[(6,7-dimethoxy-2-methylquinazolin-4-yl)amino]ethyl}thiophen-2-yl)benzonitrile] | > 20 |  | 0.9 | 
COc1cc2nc(C)nc(NC(C)c3ccc(-c4cccc5cn[nH]c45)s3)c2cc1OC (centres unmarked) [Example 246, N-{1-[5-(1H-indazol-7-yl)thiophen-2-yl]ethyl}-6,7-dimethoxy-2-methylquinazolin-4-amine] | > 20 |  | 4.21 | 
